≈ marks a conversion by molar mass, not a printed value.
How the values were obtained:
[1] = molecular target: T1, Quinolone resistance protein NorA (Staphylococcus aureus) (UniProt P0A0J7); experiment: Modulation of norfloxacin-induced inhibition of NorA efflux pump in Staphylococcus aureus 1199B overexpressing NorA efflux pump assessed as reduction in norfloxacin MIC at 1/4 times of MIC by resazurin based assay
T1 sequence (whole entry): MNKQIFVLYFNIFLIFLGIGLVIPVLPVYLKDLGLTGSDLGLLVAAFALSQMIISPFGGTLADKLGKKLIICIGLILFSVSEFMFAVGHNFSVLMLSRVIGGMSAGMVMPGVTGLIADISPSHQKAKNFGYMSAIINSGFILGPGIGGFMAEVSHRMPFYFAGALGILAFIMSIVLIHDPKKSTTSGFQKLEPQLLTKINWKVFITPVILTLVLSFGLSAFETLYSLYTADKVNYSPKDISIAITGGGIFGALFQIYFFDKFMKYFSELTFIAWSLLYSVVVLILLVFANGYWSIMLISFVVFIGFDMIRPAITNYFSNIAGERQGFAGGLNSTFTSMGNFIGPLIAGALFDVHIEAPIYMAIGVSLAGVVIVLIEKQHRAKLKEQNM

Staphylococcus aureus [2] = experiment: Antibacterial activity against norfloxacin resistant Staphylococcus aureus 1199 assessed as bacterial growth inhibition incubated for 24 hrs by resazurin based broth microdilution method; type: functional
Staphylococcus aureus [3] = experiment: Antibacterial activity against norfloxacin resistant Staphylococcus aureus 1199B overexpressing NorA assessed as bacterial growth inhibition incubated for 24 hrs by resazurin based broth microdilution method; type: functional
[4] = molecular target: T1, Quinolone resistance protein NorA (Staphylococcus aureus); experiment: Potentiation of norfloxacin-induced inhibition of NorA efflux pump in Staphylococcus aureus 1199A assessed as reduction in norfloxacin MIC at 1/8 times of MIC incubated for 24 hrs by resazurin based broth microdilution method (Rvb= […] ug/ml)
[5] = molecular target: T1, Quinolone resistance protein NorA (Staphylococcus aureus); experiment: Potentiation of norfloxacin-induced inhibition of NorA efflux pump in Staphylococcus aureus 1199B overexpressing NorA efflux pump assessed as reduction in norfloxacin MIC at 1/8 times of MIC incubated for 24 hrs by resazurin based broth microdilution method (Rvb= 128 ug/ml)
[6] = molecular target: T1, Quinolone resistance protein NorA (Staphylococcus aureus); experiment: Potentiation of EtBr-induced inhibition of NorA efflux pump in Staphylococcus aureus 1199A assessed as reduction in EtBr MIC at 1/8 times of MIC incubated for 24 hrs by resazurin based broth microdilution method (Rvb=32 ug/ml)
[7] = molecular target: T1, Quinolone resistance protein NorA (Staphylococcus aureus); experiment: Potentiation of EtBr-induced inhibition of NorA efflux pump in Staphylococcus aureus 1199B overexpressing NorA efflux pump assessed as reduction in EtBr MIC at 1/8 times of MIC incubated for 24 hrs by resazurin based broth microdilution method (Rvb= 32 ug/ml)
Staphylococcus aureus [8] = experiment: Antibacterial activity against wild type Staphylococcus aureus ATCC 25923 assessed as bacterial growth inhibition incubated for 24 hrs by resazurin based microdilution assay; type: functional
Staphylococcus aureus [9] = experiment: Antibacterial activity against Staphylococcus aureus IS-58 overexpressing TetK efflux protein assessed as bacterial growth inhibition incubated for 24 hrs by resazurin based microdilution assay; type: functional
Staphylococcus aureus [10] = experiment: Antibacterial activity against Staphylococcus aureus RN4220 overexpressing […] efflux protein assessed as bacterial growth inhibition incubated for 24 hrs by resazurin based microdilution assay; type: functional
Staphylococcus aureus [11] = experiment: Antibacterial activity against Staphylococcus aureus 1199B overexpressing NorA efflux protein assessed as bacterial growth inhibition incubated for 24 hrs by resazurin based microdilution assay; type: functional
Staphylococcus aureus [12] = experiment: Antibacterial activity against Staphylococcus aureus K2068 overexpressing mepA gene assessed as bacterial growth inhibition incubated for 24 hrs by resazurin based microdilution assay; type: functional
Staphylococcus aureus [13] = experiment: Antibacterial activity against Staphylococcus aureus K4414 overexpressing qacA/B gene assessed as bacterial growth inhibition incubated for 24 hrs by resazurin based microdilution assay; type: functional
Staphylococcus aureus [14] = experiment: Antibacterial activity against Staphylococcus aureus K4100 overexpressing qacC gene assessed as bacterial growth inhibition incubated for 24 hrs by resazurin based microdilution assay; type: functional
Staphylococcus aureus [15] = experiment: Antibacterial activity against norfloxacin resistant Staphylococcus aureus 1199B overexpressing NorA assessed as bacterial growth inhibition incubated for 24 hrs by resazurin based microdilution assay; type: functional
Staphylococcus aureus [16] = experiment: Antibacterial activity against methicillin-resistant Staphylococcus aureus 1199B overexpressing NorA gene assessed as bacterial growth inhibition; type: functional
Staphylococcus aureus [17] = experiment: Antibacterial activity against Staphylococcus aureus 1199B expressing NorA efflux protein assessed as bacterial growth inhibition incubated for 24 hrs by resazurin based microdilution assay; type: functional
Staphylococcus aureus [18] = experiment: Antibacterial activity against wild type Staphylococcus aureus 1199 assessed as bacterial growth inhibition incubated for 24 hrs by resazurin based microdilution assay; type: functional
[19] = molecular target: T1, Quinolone resistance protein NorA (Staphylococcus aureus); experiment: Inhibition of NorA efflux pump in Staphylococcus aureus 1199B overexpressing NorA efflux pump assessed as norfloxacin MIC at 1/8 times of MIC using norfloxacin as substrate incubated for 24 hrs by resazurin based assay (Rvb= 406.37 ug/ml)
[20] = molecular target: T1, Quinolone resistance protein NorA (Staphylococcus aureus); experiment: Inhibition of NorA efflux pump in Staphylococcus aureus 1199 assessed as norfloxacin MIC at 1/8 times of MIC using norfloxacin as substrate incubated for 24 hrs by resazurin based assay (Rvb= 32 ug/ml)
[21] = molecular target: T1, Quinolone resistance protein NorA (Staphylococcus aureus); experiment: Inhibition of NorA efflux pump in Staphylococcus aureus 1199B overexpressing NorA efflux pump assessed as EtBr MIC at 1/8 times of MIC using EtBr as substrate incubated for 24 hrs by resazurin based assay (Rvb= 256 ug/ml)
[22] = molecular target: T1, Quinolone resistance protein NorA (Staphylococcus aureus); experiment: Inhibition of NorA efflux pump in Staphylococcus aureus 1199 assessed as EtBr MIC at 1/8 times of MIC using EtBr as substrate incubated for 24 hrs by resazurin based assay (Rvb= 256 ug/ml)
[23] = molecular target: T1, Quinolone resistance protein NorA (Staphylococcus aureus); experiment: Modulation of EtBr -induced inhibition of NorA efflux pump in Staphylococcus aureus 1199B overexpressing NorA efflux pump assessed as reduction in EtBr MIC at 1/4 times of MIC using EtBr as substrate by resazurin based assay
Staphylococcus aureus [24] = experiment: Antibacterial activity against Staphylococcus aureus 1199 assessed as bacterial growth inhibition incubated for 24 hrs by broth microdilution method; type: functional
Staphylococcus aureus [25] = experiment: Antibacterial activity against Staphylococcus aureus 1199B overexpressing NorA efflux gene assessed as bacterial growth inhibition incubated for 24 hrs by broth microdilution method; type: functional
Staphylococcus aureus [26] = experiment: Antibacterial activity against NorA knockout Staphylococcus aureus K1758 assessed as bacterial growth inhibition incubated for 24 hrs by broth microdilution method; type: functional
Staphylococcus aureus [27] = experiment: Synergistic antimicrobial activity against Staphylococcus aureus 1199B overexpressing NorA efflux pump assessed as reduction in norfloxacin MIC incubated for 24 hrs by MTT colorimetric assay (Rvb= […]); type: functional
Staphylococcus aureus [28] = experiment: Synergistic antimicrobial activity against Staphylococcus aureus 1199B overexpressing NorA efflux pump assessed as fractional inhibitory concentration index incubated for 24 hrs by checkerboard method; type: functional

Q: Which MIC [1] does the source give for `C[C@@H]1O[C@@H](Oc2c(-c3ccc(O)c(O)c3)oc3cc(O)cc(O)c3c2=O)[C@H](O)[C@H](O)[C@H]1O` here?
A: 64 µg/mL

Q: How did the MIC (Staphylococcus aureus [2]) turn out when `C=CCc1cc(OC)c(O)c(OC)c1` [METHOXYEUGENOL] was run?
A: 32 µg/mL (≈ 165 µM)

Q: And the MIC (Staphylococcus aureus [3])?
A: 128 µg/mL (≈ 659 µM)

Q: Which results are given for `C=CCc1ccc(O)c(OC)c1` [EUGENOL]?
A: MIC (Staphylococcus aureus [2]): 102 µg/mL (≈ 619 µM); MIC (Staphylococcus aureus [3]): 128 µg/mL (≈ 780 µM)

Q: With `Cc1ccc(C(C)C)c(O)c1` [THYMOL] as the compound, how does the MIC (Staphylococcus aureus [2]) read?
A: 256 µg/mL (≈ 1700 µM)

Q: What about the MIC (Staphylococcus aureus [3]) of the same compound?
A: 256 µg/mL (≈ 1700 µM)

Q: What about the MIC [4] of the same compound?
A: 32 µg/mL

Q: What about the MIC [5] of the same compound?
A: 64 µg/mL

Q: What about the MIC [6] of the same compound?
A: 25.4 µg/mL

Q: And the MIC [7]?
A: 16 µg/mL

Q: Which MIC (Staphylococcus aureus [8]) does the source give for `COc1ccc(/C=C/C(=O)c2ccccc2)cc1OC` here?
A: 100 µg/mL (≈ 373 µM)

Q: And the MIC (Staphylococcus aureus [9])?
A: 100 µg/mL (≈ 373 µM)

Q: And the MIC (Staphylococcus aureus [10])?
A: 100 µg/mL (≈ 373 µM)

Q: What about the MIC (Staphylococcus aureus [11]) of the same compound?
A: 100 µg/mL (≈ 373 µM)

Q: What about the MIC (Staphylococcus aureus [12]) of the same compound?
A: 100 µg/mL (≈ 373 µM)

Q: And the MIC (Staphylococcus aureus [13])?
A: 100 µg/mL (≈ 373 µM)

Q: What about the MIC (Staphylococcus aureus [14]) of the same compound?
A: 100 µg/mL (≈ 373 µM)

Q: With `COc1ccc(-c2cc(=O)c3c(O)cc(O[C@@H]4O[C@H](CO[C@@H]5O[C@@H](C)[C@H](O)[C@@H](O)[C@H]5O)[C@@H](O)[C@H](O)[C@H]4O)cc3o2)cc1O` as the compound, how does the MIC [1] read?
A: 32 µg/mL

Q: Which results are given for `CCn1cc(C(=O)O)c(=O)c2cc(F)c(N3CCNCC3)cc21` [NORFLOXACIN]?
A: MIC (Staphylococcus aureus [15]): 64 µg/mL (≈ 200 µM); MIC (Staphylococcus aureus [16]): 32 µg/mL (≈ 100 µM)

Q: `CC(C)=CCC1=C(NCCO)C(=O)c2ccccc2C1=O` was tested. Which MIC (Staphylococcus aureus [17]) did it give?
A: ≥ 1020 µg/mL

Q: And the MIC (Staphylococcus aureus [18])?
A: ≥ 1020 µg/mL

Q: What about the MIC [19] of the same compound?
A: 80 µg/mL

Q: And the MIC [20]?
A: 1 µg/mL

Q: What about the MIC [21] of the same compound?
A: 32 µg/mL

Q: What about the MIC [22] of the same compound?
A: 16 µg/mL

Q: Which MIC [1] does the source give for `O=C1C[C@@H](c2ccc(O)cc2)Oc2cc(O)cc(O)c21` here?
A: 32 µg/mL

Q: And the MIC [23]?
A: 16 µg/mL

Q: For `C/C=C/c1ccc(O)c(OC)c1`, which MIC (Staphylococcus aureus [2]) is on record?
A: 40.3 µg/mL (≈ 245 µM)

Q: And the MIC (Staphylococcus aureus [3])?
A: 32 µg/mL (≈ 195 µM)

Q: What does the source list for `O=c1c(O)c(-c2ccc(O)cc2)oc2cc(O)cc(O)c12` [KAEMPFEROL]?
A: MIC (Staphylococcus aureus [24]): 125 µg/mL (≈ 437 µM); MIC (Staphylococcus aureus [25]): 250 µg/mL (≈ 873 µM); MIC (Staphylococcus aureus [26]): 125 µg/mL (≈ 437 µM)

Q: `O=C1C[C@@H](c2ccccc2)Oc2cc(O)cc(O)c21` [PINOCEMBRIN] was tested. Which MIC (Staphylococcus aureus [24]) did it give?
A: 250 µg/mL (≈ 976 µM)

Q: What about the MIC (Staphylococcus aureus [25]) of the same compound?
A: 500 µg/mL (≈ 1950 µM)

Q: What about the MIC (Staphylococcus aureus [26]) of the same compound?
A: 250 µg/mL (≈ 976 µM)

Q: With `C=CC[C@]12C=C(OC)C(=O)[C@H]([C@@H](c3ccc4c(c3)OCO4)[C@@H]1C)[C@@H]2OC(C)=O` as the compound, how does the MIC (Staphylococcus aureus [27]) read?
A: 16 µg/mL

Q: And the “fractional inhibitory concentration index (FICI)” value (Staphylococcus aureus [28])?
A: 0.25

Q: Which MIC [1] does the source give for `O=C(CCc1ccc(O)cc1)c1c(O)cc(O)cc1O` here?
A: 32 µg/mL

Q: What about the MIC [23] of the same compound?
A: 8 µg/mL

Q: For `O=c1c(O)c(-c2ccccc2)oc2cc(O)cc(O)c12` [GALANGIN], which MIC (Staphylococcus aureus [24]) is on record?
A: 125 µg/mL (≈ 463 µM)

Q: And the MIC (Staphylococcus aureus [25])?
A: 250 µg/mL (≈ 925 µM)

Q: And the MIC (Staphylococcus aureus [26])?
A: 125 µg/mL (≈ 463 µM)

Q: Which MIC (Staphylococcus aureus [2]) does the source give for `C=CCc1ccccc1` [ALLYLBENZENE] here?
A: > 1020 µg/mL

Q: What about the MIC (Staphylococcus aureus [3]) of the same compound?
A: > 1020 µg/mL
